The values below come from patent publication US11278586B2, “Highly absorbable oral tyrosine formulation” (Kao Corporation, priority 2017, dated 2022).

Where a SMILES comes first, the peptide text is derived from it.

Data set [1] can be described thus: Bioabsorbability of tyrosine after oral administration to mice (plasma amino acids by LC-MS/MS). It counts as in vivo, C57B6J Mice. Particulars: oral 0.55 mmol/kg body weight; for administered dipeptide detected in the plasma: at any time after administration (15-60 min), results not shown. The method, then:
C57B6J Mice (CLEA Japan, Inc., 8 weeks old, male) were acclimatized for 1 week, and then the mice were divided into 4 groups with similar body weights (N=4 for each group). Each of amino acids dissolved in water was orally administered to the mice by sonde at the following dose in Table 1. Venous blood was collected from the fundus using a heparin-treated micro hematocrit tube (VITREX) under isoflurane anesthesia before administration and 15, 30, 45, and 60 minutes after administration. These were centrifuged (8,000×g, 10 minutes, 4° C.) to obtain plasma. Thereafter, a 15% by mass of aqueous sulfosalicylic acid solution which was three times amount of the plasma was added thereto, mixed, and centrifuged (8,000×g, 10 minutes, 4° C.) to remove the protein, and the obtained plasma was used as a sample for analysis. Quantification of amino acids in the sample for analysis was performed using LC-MS/MS. Infinity 1290 (Agilent) was used for liquid chromatography, and 3200 QTRAP (AB Sciex) was used for mass spectrometry.
A tyrosine administration group and a tyrosine and glycine (each equimolar amount) mixed administration group were set as controls for the glycyltyrosine administration group. An alanyltyrosine administration group was also set for effect comparison.

Another data set is described as follows: Solubility in water. It counts as physicochemical. Particulars: dose of 0.55 mmol/kg body weight, an amount equivalent to 10 times the solubility of tyrosine. The protocol:
Glycyltyrosine and alanyltyrosine are known to have high solubility as compared to tyrosine, and the solubility thereof in water at 20° C. is about 75 times and about 36 times that of tyrosine, respectively (Fust et al., (2001) J. Nutr.). […] In spite of this, an excellent action of improving bioabsorbability of tyrosine was confirmed only in the oral administration/ingestion of glycyltyrosine. Therefore, the action is considered not due to the improvement in solubility, but an effect unique to glycyltyrosine.

The conditions of data set [2]: water at 20° C.; Fust et al. (2001) J. Nutr.; cited from earlier work.

With `C[C@H](N)C(=O)N[C@@H](Cc1ccc(O)cc1)C(=O)O` [alanyltyrosine, L-Alanyl-L-tyrosine, reference compound] (H-Ala-Tyr-OH), the “administered dipeptide detected in the plasma” value in data set [1] is recorded as “not detected”. Moreover, the “dissolution of the administration sample in water” value in the data set “Solubility in water” is “completely dissolved”. Moreover, the “solubility in water relative to that of tyrosine” value in data set [2] is reported as “about 36 times”.
In the case of `NCC(=O)N[C@@H](Cc1ccc(O)cc1)C(=O)O` [glycyltyrosine, Glycyl-L-tyrosine dihydrate] (H-Gly-Tyr-OH), the “blood tyrosine concentration compared with the tyrosine administration group” value in data set [1] (15 minutes after administration, Dunnett p<0.01, FIG. 1) is “significantly higher”. Further, the “maximum blood concentration (Cmax) of tyrosine compared to the tyrosine administration group” value in data set [1] (FIG. 2) is on record as “significantly high values”. In data set [1], the “administered dipeptide detected in the plasma” value was “not detected”. Moreover, the “blood glycine concentration versus the tyrosine and glycine mixed administration group” value in data set [1] (at any time after administration, FIG. 1) is “no significant difference”. For the same compound, in data set [1] (until 60 minutes after administration, FIG. 2), the “area under the increased blood concentration-time curve (iAUC) of tyrosine compared to the tyrosine administration group” value is recorded as “significantly high values”. Further, in the data set “Solubility in water”, the “dissolution of the administration sample in water” value is recorded as “completely dissolved”. The “solubility in water relative to that of tyrosine” value in data set [2] is “about 75 times”.
